Consider 1 compound from ChEMBL document CHEMBL4041544, “Discovery of new selective glucocorticoid receptor agonist leads” (Bioorg Med Chem Lett, 2017).

Series [1] relates to Rattus norvegicus. Kind of series: Anti-inflammatory activity in po dosed Wistar rat assessed as inhibition of croton oil-induced ear edema. The series is classed as functional.
The target in series [2] is T1, Androgen receptor (Homo sapiens, UniProt P10275).
T1 sequence (P10275 whole entry): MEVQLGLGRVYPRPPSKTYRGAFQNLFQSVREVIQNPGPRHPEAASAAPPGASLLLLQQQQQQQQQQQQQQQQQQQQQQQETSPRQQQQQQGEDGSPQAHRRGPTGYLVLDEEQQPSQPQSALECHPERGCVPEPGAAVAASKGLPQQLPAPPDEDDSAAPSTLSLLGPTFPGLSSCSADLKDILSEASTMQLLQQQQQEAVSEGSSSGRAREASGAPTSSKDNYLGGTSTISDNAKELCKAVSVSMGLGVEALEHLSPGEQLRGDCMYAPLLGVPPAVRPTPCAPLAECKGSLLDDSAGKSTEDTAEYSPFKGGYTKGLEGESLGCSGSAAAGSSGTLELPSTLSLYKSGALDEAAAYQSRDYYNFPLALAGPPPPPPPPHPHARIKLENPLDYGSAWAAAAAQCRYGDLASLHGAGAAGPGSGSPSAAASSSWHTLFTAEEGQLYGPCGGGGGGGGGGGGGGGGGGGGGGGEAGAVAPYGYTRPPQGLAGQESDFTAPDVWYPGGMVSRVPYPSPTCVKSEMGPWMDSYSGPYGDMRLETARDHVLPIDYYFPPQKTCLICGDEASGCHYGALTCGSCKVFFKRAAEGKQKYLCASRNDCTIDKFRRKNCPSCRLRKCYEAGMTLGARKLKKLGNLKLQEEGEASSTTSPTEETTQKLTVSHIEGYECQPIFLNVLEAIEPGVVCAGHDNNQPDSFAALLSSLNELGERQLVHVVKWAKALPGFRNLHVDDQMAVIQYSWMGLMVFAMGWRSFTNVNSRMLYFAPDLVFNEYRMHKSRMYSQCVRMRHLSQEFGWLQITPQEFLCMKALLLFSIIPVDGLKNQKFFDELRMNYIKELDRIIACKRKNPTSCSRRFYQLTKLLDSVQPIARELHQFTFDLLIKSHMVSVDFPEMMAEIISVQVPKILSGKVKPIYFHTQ
Kind of series: Binding affinity to recombinant human androgen receptor expressed in baculovirus infected sf9 cells.

Series [3] concerns Rattus norvegicus. Kind of series: Anti-inflammatory activity in Wistar rat assessed as inhibition of croton oil-induced ear edema at 30 mg/kg, po relative to control. The series is classed as functional.
Series [4] is described as follows: Lipophilicity, log P of the compound. The series is classed as physicochemical. Particulars: octanol/water.
Series [5] has as its target T2, Glucocorticoid receptor (Homo sapiens, UniProt P04150).
T2 sequence (P04150 whole entry): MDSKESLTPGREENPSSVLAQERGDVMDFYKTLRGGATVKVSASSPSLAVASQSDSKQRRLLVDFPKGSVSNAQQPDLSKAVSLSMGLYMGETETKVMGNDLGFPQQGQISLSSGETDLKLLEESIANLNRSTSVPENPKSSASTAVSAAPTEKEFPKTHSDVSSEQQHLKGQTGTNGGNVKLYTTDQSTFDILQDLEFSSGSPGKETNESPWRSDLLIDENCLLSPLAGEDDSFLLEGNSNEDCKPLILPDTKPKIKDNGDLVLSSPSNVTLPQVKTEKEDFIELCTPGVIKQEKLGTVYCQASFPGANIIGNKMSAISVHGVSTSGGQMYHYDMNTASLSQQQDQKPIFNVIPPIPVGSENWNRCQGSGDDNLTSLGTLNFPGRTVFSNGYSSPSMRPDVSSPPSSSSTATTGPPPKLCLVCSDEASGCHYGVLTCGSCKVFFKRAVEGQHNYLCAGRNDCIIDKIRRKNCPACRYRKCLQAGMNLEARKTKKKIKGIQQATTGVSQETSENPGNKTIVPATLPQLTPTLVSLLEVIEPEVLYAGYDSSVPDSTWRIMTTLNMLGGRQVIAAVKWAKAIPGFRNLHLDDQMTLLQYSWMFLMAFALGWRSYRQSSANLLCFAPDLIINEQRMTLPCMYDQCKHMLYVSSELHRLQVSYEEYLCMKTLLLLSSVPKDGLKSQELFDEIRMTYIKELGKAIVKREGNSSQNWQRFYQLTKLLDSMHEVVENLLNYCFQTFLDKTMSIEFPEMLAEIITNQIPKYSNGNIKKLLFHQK
Kind of series: Transactivation activity at glucocorticoid receptor in human HeLa cells assessed as induction of MMTV promoter activity by luciferase reporter gene assay. The series is classed as cell-based. A general note: A reporter such as luciferase makes a cellular process visible.

The subject of series [6] is Rattus norvegicus. Briefly: Anti-inflammatory activity in Brown Norway rat assessed as inhibition of TMA-induced ear edema at 30 mg/kg, po relative to control. The format is functional.
Series [7] has as its system Rattus norvegicus. Kind of series: Anti-inflammatory activity in po dosed Brown Norway rat assessed as inhibition of TMA-induced ear edema. The series is classed as functional.
Series [8] in a line: Blood clearance in rat at 1.25 mg/kg, iv administered as bolus dose. The series is classed as ADME, organism-based. Particulars: whole blood.
Series [9] can be described thus: Oral bioavailability in rat at 10 mg/kg dosed as microcrystalline suspension. The format is ADME, organism-based. As to conditions: in vivo.
Series [10] in a line: Volume of distribution at steady state in rat at 1.25 mg/kg, iv administered as bolus dose. The series is classed as ADME, organism-based. As to conditions: in vivo, read-out: Vdss.
Series [11] has as its target T2, Glucocorticoid receptor. Kind of series: Transrepression activity at glucocorticoid receptorin human HeLa cells assessed as inhibition of TPA-induced collagenase promoter activity by luciferase reporter gene assay. The series is classed as cell-based.
A short description of series [12]: Half life in rat at 1.25 mg/kg, iv administered as bolus dose. The series is classed as ADME, organism-based. As to conditions: in vivo.
In series [13] the target is T2, Glucocorticoid receptor. Briefly: Binding affinity to recombinant human glucocorticoid receptor expressed in baculovirus infected sf9 cells.
Series [14] in a line: Stability in human liver microsomes assessed as drug recovery after 30 mins. The format is ADME, microsome. As to conditions: read-out: Drug recovery. Background: Liver microsomes are vesicles of endoplasmic reticulum, rich in cytochrome P450 enzymes.

Turning to `CC[C@@H]1C[C@](O)(C(F)(F)F)[C@@H](Nc2cc(F)cc3nc(C)ncc23)c2ccc(F)c(O)c21`, the ED50 in series [1] turned out to be 1.4 mg/kg; in [7] it was 1.3 mg/kg. Also, the results for the IC50 in [2], in [11] and in series [13] were greater than 1 µM, 0.00631 µM and 0.126 µM, respectively. Further, the Imax in series [3] came out at 124%; in series [6], 55%. This compound also displayed a logP in series [4] of 4. For the same compound, in [5], the pEC50 worked out at 7.6. Besides, the clearance in series [8] was 1.6 L/h/kg. In series [9], the bioavailability stood at 59%. Further, the Vd in [10] was found to be 11 L/kg. In series [12], the half-life is 5.8 h. Also, in series [14], the remaining at 0.5 h was determined as 98%.

Broadly, the ED50 is the dose at which the effect has come halfway, by size or by number of responders. As a reminder, the IC50 is the concentration that gives 50% inhibition. The logP is the decadic logarithm of the partition coefficient of the neutral form, usually between octanol and water. In general, pEC50 refers to −log10 of the EC50, conventionally taken in molar units. Usually clearance stands for a measure of how efficiently the substance is removed, as volume per time. A higher clearance goes with a high capacity for elimination. As usually defined, the bioavailability is dose-corrected exposure relative to a reference, in per cent. Higher therefore signals much systemic uptake. By half-life is commonly meant how long it takes for the measured level to halve.
